Source: US11203601B2, “Tricyclic compounds as glycogen synthase kinase 3 (GSK3) inhibitors and uses thereof” (The Broad Institute, Inc., priority 2017, dated 2021)

Experiments:
p38δ = p38δ (Homo sapiens (Human), UniProt O15264); assay: Carna kinome panel; type: biochemical; conditions: read-out: % Inhibition at 10 μM of the test compound
YES(T348I) = YES(T348I) (Homo sapiens (Human), UniProt P07947, T348I); assay: Carna kinome panel; type: biochemical; conditions: read-out: % Inhibition at 10 μM of the test compound
EPHA5 = EPHA5 (Homo sapiens (Human), UniProt P54756); assay: Carna kinome panel; type: biochemical; conditions: read-out: % Inhibition at 10 μM of the test compound
NEK1 = NEK1 (Homo sapiens (Human), UniProt Q96PY6); assay: Carna kinome panel; type: biochemical; conditions: read-out: % Inhibition at 10 μM of the test compound
MLK3_Cascade = MLK3_Cascade (Homo sapiens (Human), UniProt Q16584); assay: Carna kinome panel; type: biochemical; conditions: read-out: % Inhibition at 10 μM of the test compound
KIT = KIT (Homo sapiens (Human), UniProt P10721); assay: Carna kinome panel; type: biochemical; conditions: read-out: % Inhibition at 10 μM of the test compound
CHK1 = CHK1 (Homo sapiens (Human), UniProt O14757); assay: Carna kinome panel; type: biochemical; conditions: read-out: % Inhibition at 10 μM of the test compound
JAK3 = JAK3 (Homo sapiens (Human), UniProt P52333); assay: Carna kinome panel; type: biochemical; conditions: read-out: % Inhibition at 10 μM of the test compound
Chain of JAK3 (P52333 whole entry): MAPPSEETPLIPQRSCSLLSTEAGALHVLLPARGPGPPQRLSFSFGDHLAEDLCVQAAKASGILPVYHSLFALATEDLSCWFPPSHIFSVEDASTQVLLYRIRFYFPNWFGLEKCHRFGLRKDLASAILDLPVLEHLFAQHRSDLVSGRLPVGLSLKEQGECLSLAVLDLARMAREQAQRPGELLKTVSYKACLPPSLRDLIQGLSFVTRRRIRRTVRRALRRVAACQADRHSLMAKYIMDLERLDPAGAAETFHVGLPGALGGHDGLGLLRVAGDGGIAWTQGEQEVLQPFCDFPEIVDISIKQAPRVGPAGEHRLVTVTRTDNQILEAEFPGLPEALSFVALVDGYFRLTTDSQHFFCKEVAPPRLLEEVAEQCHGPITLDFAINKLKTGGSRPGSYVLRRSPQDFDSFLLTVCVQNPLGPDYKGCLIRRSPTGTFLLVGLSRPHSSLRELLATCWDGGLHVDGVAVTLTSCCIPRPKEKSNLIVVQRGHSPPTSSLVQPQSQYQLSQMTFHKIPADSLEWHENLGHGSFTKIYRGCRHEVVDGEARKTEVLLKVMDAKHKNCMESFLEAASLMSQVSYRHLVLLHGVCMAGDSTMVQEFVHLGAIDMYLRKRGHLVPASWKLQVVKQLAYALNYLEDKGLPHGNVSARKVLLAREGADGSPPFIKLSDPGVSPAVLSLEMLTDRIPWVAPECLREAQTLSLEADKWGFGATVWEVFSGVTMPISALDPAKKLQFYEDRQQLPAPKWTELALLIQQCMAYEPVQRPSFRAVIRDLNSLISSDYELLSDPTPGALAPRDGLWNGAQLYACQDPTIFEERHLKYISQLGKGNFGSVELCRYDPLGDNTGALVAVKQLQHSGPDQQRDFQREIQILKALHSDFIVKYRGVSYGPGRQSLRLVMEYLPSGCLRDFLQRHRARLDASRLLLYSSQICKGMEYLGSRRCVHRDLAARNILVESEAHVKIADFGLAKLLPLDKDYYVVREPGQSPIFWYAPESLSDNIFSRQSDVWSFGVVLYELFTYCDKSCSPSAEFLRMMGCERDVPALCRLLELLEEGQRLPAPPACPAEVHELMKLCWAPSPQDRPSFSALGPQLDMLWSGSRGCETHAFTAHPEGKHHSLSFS

MAP2K6_Cascade = MAP2K6_Cascade (Homo sapiens (Human), UniProt P52564); assay: Carna kinome panel; type: biochemical; conditions: read-out: % Inhibition at 10 μM of the test compound
MST2 = MST2 (Homo sapiens (Human), UniProt Q13188); assay: Carna kinome panel; type: biochemical; conditions: read-out: % Inhibition at 10 μM of the test compound
MAP2K4_Cascade = MAP2K4_Cascade (Homo sapiens (Human), UniProt P45985); assay: Carna kinome panel; type: biochemical; conditions: read-out: % Inhibition at 10 μM of the test compound
Chain of MAP2K4_Cascade (P45985 whole entry): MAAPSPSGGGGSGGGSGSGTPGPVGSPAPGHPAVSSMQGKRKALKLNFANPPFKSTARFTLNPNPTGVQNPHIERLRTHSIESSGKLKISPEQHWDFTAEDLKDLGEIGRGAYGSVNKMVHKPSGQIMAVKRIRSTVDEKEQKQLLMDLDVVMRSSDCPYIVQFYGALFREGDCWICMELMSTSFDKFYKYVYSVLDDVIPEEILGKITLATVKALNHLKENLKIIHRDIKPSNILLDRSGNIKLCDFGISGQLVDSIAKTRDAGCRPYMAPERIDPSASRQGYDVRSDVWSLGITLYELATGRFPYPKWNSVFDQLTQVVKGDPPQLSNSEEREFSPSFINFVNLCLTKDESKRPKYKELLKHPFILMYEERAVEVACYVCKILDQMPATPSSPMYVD

PLK3 = PLK3 (Homo sapiens (Human), UniProt Q9H4B4); assay: Carna kinome panel; type: biochemical; conditions: read-out: % Inhibition at 10 μM of the test compound
YES = YES (Homo sapiens (Human), UniProt P07947); assay: Carna kinome panel; type: biochemical; conditions: read-out: % Inhibition at 10 μM of the test compound
Chain of YES (P07947 whole entry): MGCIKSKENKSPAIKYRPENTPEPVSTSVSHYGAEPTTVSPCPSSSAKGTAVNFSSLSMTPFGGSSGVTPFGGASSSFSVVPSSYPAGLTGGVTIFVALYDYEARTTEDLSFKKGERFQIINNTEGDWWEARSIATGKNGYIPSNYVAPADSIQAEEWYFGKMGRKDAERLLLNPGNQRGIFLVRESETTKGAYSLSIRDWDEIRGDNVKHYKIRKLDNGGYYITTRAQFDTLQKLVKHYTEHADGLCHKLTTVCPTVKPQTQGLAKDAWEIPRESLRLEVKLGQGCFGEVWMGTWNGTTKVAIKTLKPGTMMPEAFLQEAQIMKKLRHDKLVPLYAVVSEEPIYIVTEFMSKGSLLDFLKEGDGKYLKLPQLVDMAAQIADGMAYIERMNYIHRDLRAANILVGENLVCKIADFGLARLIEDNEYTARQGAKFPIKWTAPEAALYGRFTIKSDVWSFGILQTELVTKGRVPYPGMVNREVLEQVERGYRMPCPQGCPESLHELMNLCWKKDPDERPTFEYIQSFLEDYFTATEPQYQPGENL

LTK = LTK (Homo sapiens (Human), UniProt P29376); assay: Carna kinome panel; type: biochemical; conditions: read-out: % Inhibition at 10 μM of the test compound
Protocol: Briefly, a selection of compounds was screened against a panel of kinases at a single concentration of 10 μM. […] This was completed using one of two assays, depending on the kinase being examined: 1) IMAP Assay. A solution of 4× inhibitor, 4× substrate/ATP/metal solution and 2× kinase solution was prepared with assay buffer (20 mM HEPES, 0.01% Tween-20, 2 mM DTT, pH 7.4) and mixed, then incubated in 384-well black plates for 1 hour at room temperature. The IMAP binding reagent (IMAP Screening Express kit; Molecular Devices) was added to each well and incubated for 30 minutes. […] 2) Off-Chip Mobility Shift Assay (MSA). A solution of 4× inhibitor, 4× substrate/ATP/metal solution and 2× kinase solution was prepared with assay buffer (20 mM HEPES, 0.01% Triton X-100, 2 mM DTT, pH 7.5) and mixed, then incubated in 384-well plates for 1 or 5 hours depending on the kinase, at room temperature. Termination buffer (QuickScout Screening assist MSA; Carna Biosciences) was added to each well. The entire reaction mixture was then applied to a LabChip3000 system (Caliper Life Science), and the product and substrate peptide peaks were separated and quantified. […] The entire reaction mixture was then applied to a LabChip3000 system (Caliper Life Science), and the product and substrate peptide peaks were separated and quantified.

EPHA8 = EPHA8 (Homo sapiens (Human), UniProt P29322); assay: Carna kinome panel; type: biochemical; conditions: read-out: % Inhibition at 10 μM of the test compound
FLT3 = FLT3 (Homo sapiens (Human), UniProt P36888); assay: Carna kinome panel; type: biochemical; conditions: read-out: % Inhibition at 10 μM of the test compound
CK1γ3 = CK1γ3 (Homo sapiens (Human), UniProt Q9Y6M4); assay: Carna kinome panel; type: biochemical; conditions: read-out: % Inhibition at 10 μM of the test compound
MSSK1 = MSSK1 (Homo sapiens (Human), UniProt Q9UPE1); assay: Carna kinome panel; type: biochemical; conditions: read-out: % Inhibition at 10 μM of the test compound
AKT1 = AKT1 (Homo sapiens (Human), UniProt P31749); assay: Carna kinome panel; type: biochemical; conditions: read-out: % Inhibition at 10 μM of the test compound
RET(M918T) = RET(M918T) (Homo sapiens (Human), UniProt P07949, M918T); assay: Carna kinome panel; type: biochemical; conditions: read-out: % Inhibition at 10 μM of the test compound
MARK2 = MARK2 (Homo sapiens (Human), UniProt Q7KZI7); assay: Carna kinome panel; type: biochemical; conditions: read-out: % Inhibition at 10 μM of the test compound
TRKC = TRKC (Homo sapiens (Human), UniProt Q16288); assay: Carna kinome panel; type: biochemical; conditions: read-out: % Inhibition at 10 μM of the test compound
FMS = FMS (Homo sapiens (Human), UniProt P07333); assay: Carna kinome panel; type: biochemical; conditions: read-out: % Inhibition at 10 μM of the test compound
NDR1 = NDR1 (Homo sapiens (Human), UniProt Q15208); assay: Carna kinome panel; type: biochemical; conditions: read-out: % Inhibition at 10 μM of the test compound
ARG = ARG (Homo sapiens (Human), UniProt P42684); assay: Carna kinome panel; type: biochemical; conditions: read-out: % Inhibition at 10 μM of the test compound
PKCε = PKCε (Homo sapiens (Human), UniProt Q02156); assay: Carna kinome panel; type: biochemical; conditions: read-out: % Inhibition at 10 μM of the test compound
RET(Y791F) = RET(Y791F) (Homo sapiens (Human), UniProt P07949, Y791F); assay: Carna kinome panel; type: biochemical; conditions: read-out: % Inhibition at 10 μM of the test compound
MARK1 = MARK1 (Homo sapiens (Human), UniProt Q9P0L2); assay: Carna kinome panel; type: biochemical; conditions: read-out: % Inhibition at 10 μM of the test compound
Chain of MARK1 (Q9P0L2 whole entry): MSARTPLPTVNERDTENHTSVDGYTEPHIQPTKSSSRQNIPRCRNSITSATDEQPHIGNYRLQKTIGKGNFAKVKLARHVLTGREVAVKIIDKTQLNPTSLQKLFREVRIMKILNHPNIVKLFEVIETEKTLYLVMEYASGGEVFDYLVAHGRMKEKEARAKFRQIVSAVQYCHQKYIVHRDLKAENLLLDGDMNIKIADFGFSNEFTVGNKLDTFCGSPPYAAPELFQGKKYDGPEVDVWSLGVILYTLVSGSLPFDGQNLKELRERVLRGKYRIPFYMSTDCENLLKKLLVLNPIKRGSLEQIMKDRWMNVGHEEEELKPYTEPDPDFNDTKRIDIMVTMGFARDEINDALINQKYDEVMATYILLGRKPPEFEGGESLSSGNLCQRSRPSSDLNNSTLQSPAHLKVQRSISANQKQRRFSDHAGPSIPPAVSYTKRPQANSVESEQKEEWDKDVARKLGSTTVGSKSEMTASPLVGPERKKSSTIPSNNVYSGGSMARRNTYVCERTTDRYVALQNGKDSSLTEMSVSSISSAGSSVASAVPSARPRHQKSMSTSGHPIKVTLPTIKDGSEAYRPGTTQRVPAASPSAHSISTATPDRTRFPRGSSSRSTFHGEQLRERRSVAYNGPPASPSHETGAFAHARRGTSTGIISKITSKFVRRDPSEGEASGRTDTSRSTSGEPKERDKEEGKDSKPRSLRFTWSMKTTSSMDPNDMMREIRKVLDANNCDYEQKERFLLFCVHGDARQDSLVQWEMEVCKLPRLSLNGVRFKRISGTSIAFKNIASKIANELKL

FAK = FAK (Homo sapiens (Human), UniProt Q05397); assay: Carna kinome panel; type: biochemical; conditions: read-out: % Inhibition at 10 μM of the test compound
Chain of FAK (Q05397 whole entry): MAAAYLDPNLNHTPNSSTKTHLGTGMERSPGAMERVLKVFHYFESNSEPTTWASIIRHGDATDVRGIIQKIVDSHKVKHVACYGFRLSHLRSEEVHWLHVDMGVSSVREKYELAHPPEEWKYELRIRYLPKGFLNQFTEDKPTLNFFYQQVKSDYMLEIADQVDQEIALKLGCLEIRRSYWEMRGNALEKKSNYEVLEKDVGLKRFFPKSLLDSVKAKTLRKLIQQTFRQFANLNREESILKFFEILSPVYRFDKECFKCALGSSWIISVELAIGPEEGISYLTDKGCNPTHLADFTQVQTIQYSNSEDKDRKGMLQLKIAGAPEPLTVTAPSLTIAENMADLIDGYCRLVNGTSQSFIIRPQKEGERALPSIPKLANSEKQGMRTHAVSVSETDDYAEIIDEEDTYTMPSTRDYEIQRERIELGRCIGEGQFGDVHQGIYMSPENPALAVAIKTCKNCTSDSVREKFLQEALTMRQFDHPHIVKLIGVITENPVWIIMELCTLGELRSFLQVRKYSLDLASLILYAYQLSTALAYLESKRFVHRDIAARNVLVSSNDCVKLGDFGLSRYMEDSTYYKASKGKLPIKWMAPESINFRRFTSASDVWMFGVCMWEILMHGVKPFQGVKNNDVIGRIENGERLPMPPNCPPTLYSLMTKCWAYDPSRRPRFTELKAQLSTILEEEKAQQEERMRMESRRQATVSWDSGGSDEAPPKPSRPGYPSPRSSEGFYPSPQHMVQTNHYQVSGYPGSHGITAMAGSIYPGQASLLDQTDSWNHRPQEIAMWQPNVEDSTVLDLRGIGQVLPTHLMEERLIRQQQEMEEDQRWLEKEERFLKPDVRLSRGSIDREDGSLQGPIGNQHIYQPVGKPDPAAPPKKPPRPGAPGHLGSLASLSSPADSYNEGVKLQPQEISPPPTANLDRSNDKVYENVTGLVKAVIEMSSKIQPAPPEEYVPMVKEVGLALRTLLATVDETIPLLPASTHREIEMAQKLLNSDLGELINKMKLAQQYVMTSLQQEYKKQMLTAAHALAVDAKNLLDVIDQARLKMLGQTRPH

SRC = SRC (Homo sapiens (Human), UniProt P12931); assay: Carna kinome panel; type: biochemical; conditions: read-out: % Inhibition at 10 μM of the test compound
HCK = HCK (Homo sapiens (Human), UniProt P08631); assay: Carna kinome panel; type: biochemical; conditions: read-out: % Inhibition at 10 μM of the test compound
MARK3 = MARK3 (Homo sapiens (Human), UniProt P27448); assay: Carna kinome panel; type: biochemical; conditions: read-out: % Inhibition at 10 μM of the test compound
HER4 = HER4 (Homo sapiens (Human), UniProt Q15303); assay: Carna kinome panel; type: biochemical; conditions: read-out: % Inhibition at 10 μM of the test compound
PKACγ = PKACγ (Homo sapiens (Human), UniProt P22612); assay: Carna kinome panel; type: biochemical; conditions: read-out: % Inhibition at 10 μM of the test compound
NPM1-ALK = NPM1-ALK (Homo sapiens (Human), UniProt P06748+Q9UM73); assay: Carna kinome panel; type: biochemical; conditions: read-out: % Inhibition at 10 μM of the test compound
DAPK1 = DAPK1 (Homo sapiens (Human), UniProt P53355); assay: Carna kinome panel; type: biochemical; conditions: read-out: % Inhibition at 10 μM of the test compound
CDC7/ASK = CDC7/ASK (Homo sapiens (Human), UniProt O00311); assay: Carna kinome panel; type: biochemical; conditions: read-out: % Inhibition at 10 μM of the test compound
HIPK4 = HIPK4 (Homo sapiens (Human), UniProt Q8NE63); assay: Carna kinome panel; type: biochemical; conditions: read-out: % Inhibition at 10 μM of the test compound
EGFR(T790M) = EGFR(T790M) (Homo sapiens (Human), UniProt P00533, T790M); assay: Carna kinome panel; type: biochemical; conditions: read-out: % Inhibition at 10 μM of the test compound
GSK3α = GSK3α (Homo sapiens (Human), UniProt P49840); assay: biochemical
Chain of GSK3α (P49840 whole entry): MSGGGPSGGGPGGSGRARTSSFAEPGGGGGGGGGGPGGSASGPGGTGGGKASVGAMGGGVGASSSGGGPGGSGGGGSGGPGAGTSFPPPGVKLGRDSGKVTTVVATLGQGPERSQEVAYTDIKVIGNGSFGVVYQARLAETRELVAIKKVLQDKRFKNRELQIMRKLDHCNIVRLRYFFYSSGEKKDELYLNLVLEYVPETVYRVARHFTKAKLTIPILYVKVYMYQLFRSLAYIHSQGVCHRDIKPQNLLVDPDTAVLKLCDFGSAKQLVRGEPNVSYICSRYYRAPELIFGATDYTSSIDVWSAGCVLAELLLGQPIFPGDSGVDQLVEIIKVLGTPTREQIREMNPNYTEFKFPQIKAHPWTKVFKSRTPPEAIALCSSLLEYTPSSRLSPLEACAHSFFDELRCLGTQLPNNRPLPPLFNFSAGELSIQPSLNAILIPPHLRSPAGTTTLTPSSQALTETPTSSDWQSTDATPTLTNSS
Protocol: A selection of compounds was screened against a selected panel of kinases based on single point inhibitory ability to determine absolute inhibitory activity, leading to selectivity measurements. The assay utilized was identical to that of the single point inhibitory activity determination (MSA) but run in dose response. A solution of 4× inhibitor (5 μL), 4× substrate/ATP Metal solution (5 μL), and 2× Kinase solution (10 μL) was prepared with assay buffer (20 mM HEPES, 0.01% Triton X-100, 2 mM DTT, pH 7.5) and mixed/incubated in 384 well plates for 1 or 5 hours depending on the kinase, at room temperature. A solution of termination buffer (QuickScout Screening assist MSA; Carna Biosciences) (60 μL) was added to each well. The entire reaction mixture was then applied to a LabChip3000 system (Caliper Life Science) and the product and substrate peptide peaks were separated and quantified.
Briefly, a selection of compounds was screened against a panel of kinases at a single concentration of 10 μM. […] The entire reaction mixture was then applied to a LabChip3000 system (Caliper Life Science), and the product and substrate peptide peaks were separated and quantified. […] The entire reaction mixture was then applied to a LabChip3000 system (Caliper Life Science), and the product and substrate peptide peaks were separated and quantified.

Chain of p38δ (O15264 whole entry): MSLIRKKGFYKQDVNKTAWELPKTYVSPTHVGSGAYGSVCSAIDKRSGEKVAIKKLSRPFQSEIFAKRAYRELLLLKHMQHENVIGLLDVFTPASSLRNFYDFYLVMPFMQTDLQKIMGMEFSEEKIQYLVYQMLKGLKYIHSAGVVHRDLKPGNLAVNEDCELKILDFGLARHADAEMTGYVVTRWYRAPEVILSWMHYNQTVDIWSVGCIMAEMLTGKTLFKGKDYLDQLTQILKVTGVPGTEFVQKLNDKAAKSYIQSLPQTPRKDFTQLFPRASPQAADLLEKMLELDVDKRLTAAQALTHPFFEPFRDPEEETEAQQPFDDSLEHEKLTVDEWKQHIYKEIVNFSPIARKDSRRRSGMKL

`CCC1(c2ccccc2)C2=C(CC(C)(C)CC2=O)Nc2ncsc21` (centres unmarked) [Compound 1, 9-Ethyl-6,6-dimethyl-9-phenyl-5,6,7,9-tetrahydrothiazolo[4,5-b]quinolin-8(4H)-one] gave an inhibition at 10 µM (p38δ) of 18%, an inhibition at 10 µM (YES(T348I)) of 13.5% and an inhibition at 10 µM (EPHA5) of 9.3%. For the same molecule, the inhibition at 10 µM (NEK1) was 7.5%, the inhibition at 10 µM (MLK3_Cascade) was 7.3% and the inhibition at 10 µM (KIT) was 7.1%. For the same molecule, the inhibition at 10 µM (CHK1) was 7%, the inhibition at 10 µM (JAK3) was 6.9% and the inhibition at 10 µM (MAP2K6_Cascade) was 5.6%. For the same molecule, the inhibition at 10 µM (MST2) was 4.2%, the inhibition at 10 µM (MAP2K4_Cascade) was 3.7% and the inhibition at 10 µM (PLK3) was 3.4%. It also gave an inhibition at 10 µM (YES) of 3.3%, an inhibition at 10 µM (LTK) of 3.1% and an inhibition at 10 µM (EPHA8) of 3%. It also gave an inhibition at 10 µM (FLT3) of 2.9%, an inhibition at 10 µM (CK1γ3) of 1.5% and an inhibition at 10 µM (MSSK1) of 1.2%. For the same molecule, the inhibition at 10 µM (AKT1) was 0.7%, the inhibition at 10 µM (RET(M918T)) was 0.6% and the inhibition at 10 µM (MARK2) was 0.4%. It also gave an inhibition at 10 µM (TRKC) of 0.4%, an inhibition at 10 µM (FMS) of 0.3% and an inhibition at 10 µM (NDR1) of 0.2%. The inhibition at 10 µM (ARG) was -0.6%, the inhibition at 10 µM (PKCε) was -0.7% and the inhibition at 10 µM (RET(Y791F)) was -1.6%. It also gave an inhibition at 10 µM (MARK1) of -1.7%, an inhibition at 10 µM (FAK) of -2% and an inhibition at 10 µM (SRC) of -2.2%. It also gave an inhibition at 10 µM (HCK) of -3%, an inhibition at 10 µM (MARK3) of -3.3% and an inhibition at 10 µM (HER4) of -4%. For the same molecule, the inhibition at 10 µM (PKACγ) was -5.6%, the inhibition at 10 µM (NPM1-ALK) was -7.5% and the inhibition at 10 µM (DAPK1) was -8.7%. It also gave an inhibition at 10 µM (CDC7/ASK) of -9.1%, an inhibition at 10 µM (HIPK4) of -12.5% and an inhibition at 10 µM (EGFR(T790M)) of -13.8%. It also gave an IC50 (GSK3α) of 31.3 nM and an inhibition at 10 µM (GSK3α; read-out: % Inhibition at 10 μM of the test compound) of 98%.
